# PubChem BioAssay AID644 (The Scripps Research Institute Molecular Screening Center, 2007)
# Active and inactive are the calls of the source.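 Rule for the calls: active = IC50 at or below a set limit; inactive = IC50 above that limit.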
# Biological target: Rho-associated protein kinase 2 (Homo sapiens) (UniProt O75116)
# Assay: ROCK2 kinase inhibitor potency, dose response, biochemical, Kinase-Glo luminescence, S6 peptide, 1536-well (AID 644)
# Conditions: recombinant ROCK2, S6 peptide, Kinase-Glo ATP luminescence
# Sequence of Rho-associated protein kinase 2 (Homo sapiens) (O75116 whole entry, looked up): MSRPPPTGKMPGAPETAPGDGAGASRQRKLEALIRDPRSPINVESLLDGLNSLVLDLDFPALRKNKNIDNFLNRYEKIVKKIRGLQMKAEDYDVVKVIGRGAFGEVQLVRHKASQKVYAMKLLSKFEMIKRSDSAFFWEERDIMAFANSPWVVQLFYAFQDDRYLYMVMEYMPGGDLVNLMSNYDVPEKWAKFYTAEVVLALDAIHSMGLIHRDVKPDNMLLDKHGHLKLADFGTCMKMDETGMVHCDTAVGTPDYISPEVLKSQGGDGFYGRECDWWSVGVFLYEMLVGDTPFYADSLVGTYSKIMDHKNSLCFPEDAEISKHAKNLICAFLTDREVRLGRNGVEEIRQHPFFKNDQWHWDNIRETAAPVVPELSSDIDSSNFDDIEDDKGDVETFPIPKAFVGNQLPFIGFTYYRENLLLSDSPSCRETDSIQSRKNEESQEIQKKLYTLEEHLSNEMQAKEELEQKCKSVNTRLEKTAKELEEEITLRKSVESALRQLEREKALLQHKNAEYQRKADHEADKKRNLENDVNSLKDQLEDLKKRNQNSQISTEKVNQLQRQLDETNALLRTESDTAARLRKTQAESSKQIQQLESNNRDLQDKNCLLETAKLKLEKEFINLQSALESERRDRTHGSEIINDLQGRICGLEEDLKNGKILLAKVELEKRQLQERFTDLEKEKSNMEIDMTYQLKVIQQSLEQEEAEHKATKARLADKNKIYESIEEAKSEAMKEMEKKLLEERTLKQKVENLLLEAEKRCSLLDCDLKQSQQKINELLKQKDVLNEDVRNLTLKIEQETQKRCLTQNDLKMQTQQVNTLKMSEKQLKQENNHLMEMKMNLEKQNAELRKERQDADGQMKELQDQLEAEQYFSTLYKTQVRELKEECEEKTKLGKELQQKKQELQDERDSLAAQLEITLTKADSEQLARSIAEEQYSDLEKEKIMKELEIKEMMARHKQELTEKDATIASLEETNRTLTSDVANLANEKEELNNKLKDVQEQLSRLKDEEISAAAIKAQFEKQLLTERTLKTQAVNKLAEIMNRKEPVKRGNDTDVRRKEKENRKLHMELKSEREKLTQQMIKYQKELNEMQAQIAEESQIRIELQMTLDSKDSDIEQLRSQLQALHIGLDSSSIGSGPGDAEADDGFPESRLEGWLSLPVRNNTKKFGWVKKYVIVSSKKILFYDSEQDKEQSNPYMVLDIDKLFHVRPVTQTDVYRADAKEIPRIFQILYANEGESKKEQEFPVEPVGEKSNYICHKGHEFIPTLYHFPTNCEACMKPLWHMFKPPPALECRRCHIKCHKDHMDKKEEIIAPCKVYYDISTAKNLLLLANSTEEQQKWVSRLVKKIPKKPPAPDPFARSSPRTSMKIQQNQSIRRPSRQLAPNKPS
row,Structure (SMILES),IC50
1,COc1cc(N=Cc2c(O)[nH]c3ccccc23)cc(OC)c1OC,inactive
2,CCOC(=O)C1=C(CSc2nc(-c3ccncc3)ccc2C#N)OC(N)=C(C#N)C1c1cccnc1 (stereo not drawn),> 19.9 µM (inactive)
3,CC1=NN(c2ccccc2)C(=O)C1,> 59.6 µM (inactive)
4,O/N=C/c1c[nH]c2ccccc12,4.81 µM
5,CN1/C(=N\O)c2cccc3cccc1c23,> 19.9 µM (inactive)
6,COC(=O)c1cccc2c1-c1ccccc1/C2=N/O,> 19.9 µM (inactive)
7,CN(C(=O)c1cccc(N2C(=O)C3CC=CCC3C2=O)c1)C1CCCCC1 (stereo not drawn),> 59.6 µM (inactive)
8,Cc1[nH]nc2c1C(c1ccc(-c3ccccc3C#N)o1)C(C#N)=C(N)O2 (stereo not drawn),> 19.9 µM (inactive)
